Where two headings read alike, the source gives them in different places.
Experiment: Pharmacokinetic study GW01-0706 under maximal use conditions (serum imiquimod)
Format: in vivo, human
Procedure: An open label, single center, non-randomized pharmacokinetic (PK) study in adult subjects diagnosed with actinic keratosis (“AK”) is conducted. […] The study is conducted under maximal use conditions (dose, duration, disease severity, and application areas) in a population that had at least 10 AK lesions in the application area. The application area is the entire face (exclusive of nares, vermilion, periocular areas and ears) and/or the entire balding scalp; areas estimated as approximately 200 cm^2. If the area of the entire balding scalp is less than 200 cm^2, the forehead area is included in order for the entire treatment area to be approximately 200 cm^2.
Subjects stay at the study center overnight at treatment initiation (Day 1, 1st dose), and end of treatment (Day 21, last dose) visits for collection of a 24-hour serum PK profile. […] Single serum samples for PK analyses of trough concentrations are obtained at Day 7 and Day 14 (in the morning prior to dosing).
Adverse events, study medication accountability, and dosing compliance are reviewed at each visit. Routine clinical laboratory assessments (serum chemistry, hematology and urinalysis) are performed at Screening, Day 1 (predose), and the end of study visits.
Trough serum concentrations are obtained on Days 7, 14, 21, and 22. The trough concentrations on Days 7 and 14 are obtained during outpatient treatment while the trough concentrations on Days 21 and 22 are obtained while the subjects are dosed in the clinical research facility.

[1] = Steady-State (Day 21), 3.75% imiquimod cream 2 packets daily

Imiquimod trough concentration, Geometric LS Mean Reference (Day 21/14 comparison (Reference = Day 14), subjects with paired, non-zero data, 3.75% imiquimod cream 2 packets daily): 0.1344 ng/mL
Imiquimod trough concentration, Geometric LS Mean Test (Day 21/14 comparison (Test = Day 21), subjects with paired, non-zero data, 3.75% imiquimod cream 2 packets daily): 0.1791 ng/mL
λz, Geometric Mean [1]: 0.027 h⁻¹
λz, Mean [1]: 0.029 h⁻¹
λz, Median [1]: 0.0271 h⁻¹
concentration at 7 day (trough) (human, topical): 0.128 ng/mL
concentration at 14 day (trough) (human, topical): 0.139 ng/mL
concentration at 21 day (trough) (human, topical): 0.179 ng/mL
concentration at 22 day (trough) (human, topical): 0.167 ng/mL
AUC(0-t) (human, topical, Steady-State (Day 21), 3.75% imiquimod cream 2 packets daily, read-out: AUC0-24, Geometric Mean): 5.03 ng·h/mL
AUC(0-t) (human, topical, Steady-State (Day 21), 3.75% imiquimod cream 2 packets daily, read-out: AUC0-24, Mean): 5.97 ng·h/mL
AUC(0-t) (human, topical, Steady-State (Day 21), 3.75% imiquimod cream 2 packets daily, read-out: AUC0-24, Median): 7.02 ng·h/mL
Cmax (human, topical, Steady-State (Day 21), 3.75% imiquimod cream 2 packets daily, read-out: Cmax, Geometric Mean): 0.274 ng/mL
Cmax (human, topical, Steady-State (Day 21), 3.75% imiquimod cream 2 packets daily, read-out: Cmax, Mean): 0.323 ng/mL
Cmax (human, topical, Steady-State (Day 21), 3.75% imiquimod cream 2 packets daily, read-out: Cmax, Median): 0.35 ng/mL
Compound: CC(C)Cn1cnc2c(N)nc3ccccc3c21 [imiquimod, 1-isobutyl-1H-imidazo[4,5-c]-quinolin-4-amine]

From patent US20110319811A1 (priority 2010, published 2011)
